Reference: ChEMBL document CHEMBL1147258, “Cytochalasins Z4, Z5, and Z6, three new 24-Oxa[14]cytochalasans produced by Phoma exigua var. heteromorpha” (J Nat Prod, 2003)
Active and inactive are the calls of the source. The calls are words filed in the database; no cut-off is given here.

Columns and labels:
Solanum lycopersicum = test: Herbicidal activity against tomato seedlings assessed as inhibition of rootlet elongation at 100 uM; type: functional
[1] = (§1) Toxicity in brine shrimp assessed as mortality of larvae at 100 uM; type: organism-based; details: artemia, in vivo; read-out: Activity
Artemia = test: as §1; type: organism-based; details: in vivo, 100 µM

| Compound | Activity (Solanum lycopersicum) | mortality at 100 µM [1] | inhibition at 100 µM (Solanum lycopersicum) | Activity (Artemia) |
| --- | --- | --- | --- | --- |
| C=C1[C@@H](C)[C@H]2[C@H](Cc3ccc(O)cc3)NC(=O)[C@]23OC(=O)/C=C/[C@H](O)CCC[C@@H](C)C/C=C/[C@H]3[C@@H]1O [CYTOCHALASIN Z5] | inactive | 21% |  |  |
| C[C@H]1C/C=C/[C@H]2[C@@H]3O[C@]3(C)[C@@H](C)[C@H]3[C@H](Cc4ccccc4)NC(=O)[C@]32OC(=O)/C=C/CC(O)CC1 (stereo partly specified) [CYTOCHALASIN Z6] |  |  | 30% | Non-toxic |
| C=C1[C@@H](C)[C@H]2[C@H](Cc3ccccc3O)NC(=O)[C@]23OC(=O)/C=C/[C@H](O)CCC[C@@H](C)C/C=C/[C@H]3[C@@H]1O [CYTOCHALASIN Z4] | inactive |  |  | Non-toxic |
